How the values were obtained:
[1] = tested on: CRC247; test: High-throughput drug screen, CellTiter-Glo cell viability; format: cell-based, human; settings: CRC247 cell line; 1 μM; 72 hours
Procedure: (§1) Unless otherwise noted all experiments were carried out using the following materials and methods which are here presented as examples and not limiting embodiments. All equivalent variants are contemplated as part of the presently disclosed subject matter. An Echo Acoustic Dispenser provided automated liquid handling for drug addition while cell plating was performed by a Thermo Fisher Well Mate and assays used a Clarioscan plate reader. The drugs assayed were stamped to the cell plates immediately prior to cell plating at a final concentration of 1 μM. The drug pre-coated plates were plated with 500-1000 cells/well. 72 hours after cell plating cell viabilities were assessed via a CellTiter-Glo Luminescent Cell Viability Assay.
(§2) In this embodiment matching cells lines 31 and PDXs are created 32. These can be developed as described in the Uronis and Kim papers previously incorporated by reference. Drugs may subsequently be screened using these cell lines 33 the results validated in vivo 34 and RNA-Seq and molecular analysis 35 used. As a non-limiting example, CRC057, CRC119, CRC240, CRC247 15-496, and 16-159 were derived from patient colorectal cancers. It should be understood by those of skill in the art that any suitable type of cancer sample may have been taken. High-throughput drug screens, including 119 FDA-approved drug compounds, were performed using the patient-derived cell lines. Any suitable type of high or low throughput drug screen of any FDA approved or non-FDA approved drug may be performed on the cell lines. […] 88%, 95%, 88, and 89% of CRC119 were killed by docetaxel 42, doxorubicin 41, and the vinca alkaloids vincristine and vinorelbine 43 respectively. 46%, 93%, 63% and 56% of CRC240 were killed by docetaxel 42, doxorubicin 41, and the vinca alkaloids vincristine and vinorelbine 43 respectively. 47% 83%, 46% and 46% of CRC057 were killed by docetaxel 42, doxorubicin 41, and the vinca alkaloids vincristine and vinorelbine 43 respectively. 25%, 70%, 37%, and 33% of CRC247 were killed by docetaxel 42, doxorubicin 41, and the vinca alkaloids vincristine and vinorelbine 43 respectively. […] CRC119 45 and 16-159 46 were sensitive to the standard of care cytotoxic chemotherapeutic agent irinotecan with 43% and 64% of cells killed respectively.

[2] = tested on: CRC119; test: as above; format: cell-based, human; settings: CRC119 cell line; 1 μM; 72 hours
Procedure: as §1, §2

[3] = tested on: CRC240; test: as above; format: cell-based, human; settings: CRC240 cell line; 1 μM; 72 hours
Procedure: as §1, §2

[4] = tested on: CRC057; test: as above; format: cell-based, human; settings: CRC057 cell line; 1 μM; 72 hours
Procedure: as §1, §2

[5] = tested on: organoid A; test: Organoid cell viability / IC50; format: cell-based; settings: for IC50: organoid A
Procedure: (§3) In embodiments organoids were created by embedding single cells in Matrigel on ice and seeding the cells in 48 well plates. After the Matrigel was polymerized for 10 minutes at 37° C. basal culture medium was overlaid containing at least one of the optimized growth factor combinations in FIG. 19.
(§4) ATAC-Seq tests were run to determine which pathways were up and down regulated in the presence of various drugs. […] The effectiveness of oxaliplatin 230, an FGFR1 inhibitor 231, along with oxaliplatin and an FGFR1 inhibitor 234 as cell killers was tested in the organoid as shown in FIG. 23. […] The cell killing potential of oxaliplatin 241, an oxytocin antagonist 243, along with oxaliplatin and an oxytocin antagonist 245 was tested as shown in FIG. 24.

[6] = tested on: organoid B; test: Organoid cell viability / IC50; format: cell-based
Procedure: as §3, §4

[7] = tested on: organoid C; test: Organoid cell viability / IC50; format: cell-based
Procedure: as §3, §4

[8] = tested on: CRC119 organoid; test: Organoid drug sensitivity assay (Cell Titer Glo); format: cell-based, human; settings: SN38 tested rather than irinotecan in organoids
Procedure: (§5) In embodiments, organoids are prepared by mincing a […] tissue sample into <2 mm^3 pieces. Samples are then digested in 5 mL of DMEMF-12+Penicillin Streptomycin+Rock inhibitor Y-27632 along with 20 μL of 0.25% Trypsin/EDTA for an hour with manual inversion every 10 minutes. After being spun down at 1500 RPM the pellet is washed with 5 mL of 10% FBS. During each of 3 washes the material is pipetted slowly about fifteen times. After each wash supernatant is collected and passed through a 70 μm cell strainer. Collected washes are spun down for five minutes at 1500 RPM and the pellet mixed with a 4:1 mixture of Matrigel®/PBS and plated. After the Matrigel® solidifies 1 mL of media is added to each well.
(§6) Collected matrigel is spun for 7 minutes at 1500 RPM. The pellet is collected and resuspended in 300 μL of PBS. 50 μL of this mixture is then mixed with 50 μL of a 1:1 mixture of matrigel/PBS. 5 μL of this mixture is then added to the center of each well in a 96 well plate and the plate incubated until the matrigel solidifies. […] After 90 μL of media is added and the plate is incubated at 37° C. for 24 hours, 5 μL of the tested drug is added to each well. Example concentrations, such as 100 nM, 1 μM and 10 μM concentrations, may be tested in triplicate. After the plate is incubated at 37° C. for 48 hours, 40 μL of Cell Titer Glo for organoids is added to each well to determine drug sensitivity.
(§7) In embodiments, patients undergo biopsy of metastatic cancer, CT of the chest, abdomen and pelvis. In embodiments, drug sensitivity is tested within 7-10 days (or 2-3 days) of obtaining tissue. In embodiments, FIG. 12, organoids are prepared from a PDX biopsy 121 by collecting and digesting cells 122, seeding the cells in a 24 well plate 123, after incubation seeding cells from the 24 well plate in a 96 well plate 124 and screening drugs 125. […] Sensitivity to oxaliplatin at 100 nM, 1 μM, and 10 μM was tested on 8 organoids, CRC057, CRC119, CRC240, CRC16-159, CRC17-608, CRC18-347, CRC247 and CRC18-266, created using the above procedure. […] SN38 (7-ethyl-10-hydroxycamptothecin) was tested, rather than irinotecan, in organoids since irinotecan undergoes deesterification to SN-38 in vivo but not in vitro.

[9] = tested on: CRC057 organoid; test: Organoid drug sensitivity assay (Cell Titer Glo); format: cell-based, human
Procedure: as §5, §6, §7

[10] = tested on: CRC16-159 organoid; test: Organoid drug sensitivity assay (Cell Titer Glo); format: cell-based, human
Procedure: as §5, §6, §7

[11] = tested on: CRC240 organoid; test: Organoid drug sensitivity assay (Cell Titer Glo); format: cell-based, human; settings: SN38 tested rather than irinotecan in organoids
Procedure: as §5, §6, §7

[12] = tested on: CRC18-347 organoid; test: Organoid drug sensitivity assay (Cell Titer Glo); format: cell-based, human
Procedure: as §5, §6, §7

[13] = tested on: CRC240 PDX; test: PDX studies accompanying the organoid studies (tumor growth inhibition); format: in vivo, mice; settings: 10 mg/kg oxaliplatin or 20 mg/kg irinotecan weekly IP for three weeks
Text: (§8) PDX studies accompanying the organoid studies were developed as described previously and in Uronis J M, Osada T, McCall S, Yang X Y, Mantyh C, Morse M A, et al. Histological and molecular evaluation of patient-derived colorectal cancer explants. PloS one 2012; 7:e38422, and Kim M K, Osada T, Barry W T, Yang X Y, Freedman J A, Tsamis K A, et al. Characterization of an oxaliplatin sensitivity predictor in a preclinical murine model of colorectal cancer. Molecular cancer therapeutics 2012; 11:1500-1509. Both of these references are hereby incorporated in their entirety. 6-8 week old NOD/SCID-beige mice were used and the tumors were measured twice a week as described above. Once tumors reached a size of 250 mm^3 mice were treated with either 10 mg/kg oxaliplatin or 20 mg/kg irinotecan weekly via IP (intraperitoneal injection) for three weeks with saline used as a control. PDX tumor sizes were recorded and one-way ANOVA analysis were carried out as described in the references above to determine TGI (tumor growth inhibition.
as §7

[14] = tested on: 18-347 PDX; test: as above; format: in vivo, mice; settings: 10 mg/kg oxaliplatin weekly IP for three weeks
Text: as §8, §7

[15] = tested on: CRC057 PDX; test: as above; format: in vivo, mice; settings: 10 mg/kg oxaliplatin weekly IP for three weeks
Text: as §8, §7

[16] = tested on: CRC16-159 PDX; test: as above; format: in vivo, mice; settings: 10 mg/kg oxaliplatin weekly IP for three weeks
Text: as §8, §7

[17] = tested on: CRC119 PDX; test: as above; format: in vivo, mice; settings: 10 mg/kg oxaliplatin or 20 mg/kg irinotecan weekly IP for three weeks
Text: as §8, §7

[18] = tested on: CRC240; test: In vitro screening, ponatinib IC50 (cell viability); format: cell-based; settings: Homo sapiens, 72 hours after drug addition
Procedure: (§9) For in vitro screening, cell lines were cultured in DMEM+10% FBS+1% Penicillin/Streptomycin and plated in drug free medium. Ponatinib solubilized in DMSO was added to cell lines containing between 3000-6000 cells that had been incubated at 37° C. for 24 hours. Each cell line was exposed to seven different drug combinations between 1.6 nM and 25 μM. Five replicates were used for each drug concentration. 72 hours after drug addition cell viability assay and IC50 values were calculated for each cell line using GraphPad Prism software.
(§10) Reanalyzing the screen data, FIG. 6A identified axitinib 61, sunitinib 62, and dasatinib 63 as targeting similar pathways as ponatinib 64. […] Pre and post ponatinib treatment the major signaling pathways downstream of FGFR, FIG. 7C, not only show a decrease in STAT expression FIG. 8 in CRC119 81, CRC240 83, and CRC057 85 but an increase in p-AKT expression in CRC 119 86, CRC240 87, and CRC057 88. Expression of p-ERK increased in CRC240 89, and CRC057 82 as well.

[19] = tested on: CRC 119; test: as above; format: cell-based; settings: Homo sapiens, 72 hours after drug addition
Procedure: as §9, §10

[20] = tested on: CRC057; test: as above; format: cell-based; settings: Homo sapiens, 72 hours after drug addition
Procedure: as §9, §10

[21] = tested on: CRC cell lines; test: High-throughput drug screen, panel of patient-derived cell lines; format: cell-based; settings: Homo sapiens, in 4/6 cell lines, mined drug screen data, read-out: inhibits growth
Procedure: as §1
In this embodiment matching cells lines 31 and PDXs are created 32. These can be developed as described in the Uronis and Kim papers previously incorporated by reference. Drugs may subsequently be screened using these cell lines 33 the results validated in vivo 34 and RNA-Seq and molecular analysis 35 used. As a non-limiting example, CRC057, CRC119, CRC240, CRC247 15-496, and 16-159 were derived from patient colorectal cancers. It should be understood by those of skill in the art that any suitable type of cancer sample may have been taken. High-throughput drug screens, including 119 FDA-approved drug compounds, were performed using the patient-derived cell lines. […]

[22] = tested on: 16-159; test: High-throughput drug screen, CellTiter-Glo cell viability; format: cell-based, human; settings: 16-159 cell line; 1 μM; 72 hours
Procedure: as §1, §2

SMILES | cells killed [1] [%] | cells killed [2] [%] | cells killed [3] [%] | cells killed [4] [%] | IC50 [5] [nM] | IC50 [6] [nM] | IC50 [7] [nM] | other results
CCC1=C[C@@H]2CN(C1)Cc1c([nH]c3ccccc13)[C@@](C(=O)OC)(c1cc3c(cc1OC)N(C)[C@H]1[C@@](O)(C(=O)OC)[C@H](OC(C)=O)[C@]4(CC)C=CCN5CC[C@]31[C@@H]54)C2 [vinorelbine] | 33 | 89 | 56 | 46 |  |  |  | 
O=C1[O][Pt]2([NH][C@@H]3CCCC[C@H]3[NH]2)[O]C1=O [oxaliplatin] |  |  |  | 46 | 128000 | 7010 | 21700 | organoid sensitivity ([5]; Organoid A, from the IC50 data): resistant; organoid sensitivity [8]: resistant; organoid sensitivity [9]: sensitive; killing ([9]; 1 μM): > 50%; organoid sensitivity [10]: resistant; organoid sensitivity [11]: resistant; organoid sensitivity ([12]; 18-347 organoid): sensitive; killing ([12]; CRC18-347 organoid, 1 μM): > 50%; PDX sensitivity [13]: resistant; PDX sensitivity [14]: sensitive; PDX sensitivity [15]: sensitive; PDX sensitivity [16]: resistant; PDX sensitivity [17]: resistant
O=c1[nH]cc(F)c(=O)[nH]1 [fluorouracil] |  |  |  |  | 3960 | 37 | 125 | 
CC(=O)O[C@@]12CO[C@@H]1C[C@H](O)[C@@]1(C)C(=O)[C@H](O)C3=C(C)[C@@H](OC(=O)[C@H](O)[C@@H](NC(=O)OC(C)(C)C)c4ccccc4)C[C@@](O)([C@@H](OC(=O)c4ccccc4)[C@H]21)C3(C)C [docetaxel] | 25 | 88 | 46 | 47 |  |  |  | 
Cc1ccc(C(=O)Nc2ccc(CN3CCN(C)CC3)c(C(F)(F)F)c2)cc1C#Cc1cnc2cccnn12 [ponatinib] |  |  |  |  |  |  |  | IC50 [18]: 1100 nM; IC50 [19]: 1100 nM; IC50 [20]: 700 nM; inhibition at 1 µM [21]: ≥ 50%
CC[C@]1(O)C[C@H]2CN(CCc3c([nH]c4ccccc34)[C@@](C(=O)OC)(c3cc4c(cc3OC)N(C=O)[C@H]3[C@@](O)(C(=O)OC)[C@H](OC(C)=O)[C@]5(CC)C=CCN6CC[C@]43[C@@H]65)C2)C1 [vincristine] | 37 | 88 | 63 | 46 |  |  |  | 
CCc1c2c(nc3ccc(OC(=O)N4CCC(N5CCCCC5)CC4)cc13)-c1cc3c(c(=O)n1C2)COC(=O)[C@]3(O)CC [irinotecan] |  | 43 |  |  |  |  |  | organoid sensitivity [8]: sensitive; organoid sensitivity [11]: sensitive; PDX sensitivity [13]: sensitive; PDX sensitivity [17]: sensitive; cells killed [22]: 64%
CCc1c2c(nc3ccc(O)cc13)-c1cc3c(c(=O)n1C2)COC(=O)[C@]3(O)CC [SN38, 7-ethyl-10-hydroxycamptothecin] |  |  |  |  | 11.6 | 43900 | 32.6 | 
COc1cccc2c1C(=O)c1c(O)c3c(c(O)c1C2=O)C[C@@](O)(C(=O)CO)C[C@@H]3O[C@H]1C[C@H](N)[C@H](O)[C@H](C)O1 [doxorubicin] | 70 | 95 | 93 | 83 |  |  |  | 
